Values belong to the compound of their own block, whether it stands above or below them.
What was measured:
Assay type in all cases: biochemical, Marchantia paleacea
Conditions in all cases: ATP, MgCl2, 200 mM Tris-HCl (assay: 5 mM ATP, 300 μM CoA, 5 mM MgCl2, pH 7.5, 30°C)
Mp4CL1 [1] = system: T1, Mp4CL1; assay: UV absorbance of CoA ester formation at […] nm
T1 construct: expressed in E. coli BL21(DE3), purified; from transcriptome SRP078650

Mp4CL1 [2] = system: T1, Mp4CL1; assay: UV absorbance of CoA ester formation at […] nm; remark: listed apart in the source
Mp4CL1 [3] = system: T1, Mp4CL1; assay: UV absorbance of CoA ester formation at […] nm; remark: listed apart in the source
Mp4CL1 [4] = system: T1, Mp4CL1; assay: HPLC quantification of CoA ester with calibration curve
Description: HPLC quantification of CoA ester with calibration curve on Mp4CL1

SMILES: COc1cc(/C=C/C(=O)O)ccc1O [ferulic acid]
Km (Mp4CL1 [1]): 414 ± 95.7 µM

SMILES: O=C(O)CCc1ccc(O)cc1 [dihydro-p-coumaric acid]
Km (Mp4CL1 [4]): 289 ± 36.5 µM

Next, values leading:

Km (Mp4CL1 [2]): 115 ± 16.6 µM
SMILES: O=C(O)/C=C/c1ccccc1 [cinnamic acid]

Km (Mp4CL1 [3]): 94 ± 30.9 µM
SMILES: O=C(O)/C=C/c1ccc(O)cc1 [p-coumaric acid]

Km (Mp4CL1 [1]): 113 ± 24.3 µM
SMILES: O=C(O)/C=C/c1ccc(O)c(O)c1 [caffeic acid]
